# Results as given in paper PMC11470957, “Principles of paralog-specific targeted protein degradation engaging the C-degron E3 KLHDC2” (Nature Communications, 2024).
# “And” between values parts separate entries of the source, which are not always exact repeats. Equal entries are not always repeated. Where two headings read alike, the source gives them in different places.
# Legend:
# BRD4 = BRD4 (Homo sapiens, UniProt O60885); assay: Western blot of BRD4 levels after cellular dosing; details: for BRD4 level, Western blot quantification (DMSO = 100): 1 uM; for BRD4 level relative to DMSO (100%): U2OS KO/Rescue, 1µM, 24 h
# BRD3 = BRD3 (Homo sapiens, UniProt Q15059); assay: Western blot of BRD3 levels after cellular dosing
# KLHDC2 = target: T1, KLHDC2 (Homo sapiens, UniProt Q9Y2U9); assay: Western blot of KLHDC2 levels after cellular dosing; details: for KLHDC2 level, Western blot quantification (DMSO = 100): 1 uM; for KLHDC2 level relative to DMSO (100%): U2OS KO/Rescue
# T1 sequence (Q9Y2U9 1-406): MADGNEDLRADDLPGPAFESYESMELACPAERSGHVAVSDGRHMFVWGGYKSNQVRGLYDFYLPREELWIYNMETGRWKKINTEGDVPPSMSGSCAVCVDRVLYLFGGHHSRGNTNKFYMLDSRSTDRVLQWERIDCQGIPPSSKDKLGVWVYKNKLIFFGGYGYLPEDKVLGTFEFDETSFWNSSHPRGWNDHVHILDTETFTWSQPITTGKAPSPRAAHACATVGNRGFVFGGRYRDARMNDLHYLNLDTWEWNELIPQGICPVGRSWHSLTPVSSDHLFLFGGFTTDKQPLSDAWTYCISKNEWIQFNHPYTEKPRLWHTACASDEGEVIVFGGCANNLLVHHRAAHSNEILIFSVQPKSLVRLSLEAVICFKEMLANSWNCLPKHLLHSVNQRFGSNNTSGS
# BRD2 = BRD2 (Homo sapiens, UniProt P25440); assay: Western blot of BRD2 levels after cellular dosing
# KLHDC2^SBD [1] = target: T2, KLHDC2^SBD (Homo sapiens, UniProt Q9Y2U9); assay: TR-FRET assay, competition with di-Gly degron peptide binding to KLHDC2^SBD; design: KLHDC2^SBD (15-361) and its Avi-tagged counterpart were expressed in E. coli Rosetta2 cells; 6XHis-MBP (N, cleaved yes); made in house; host or cells: E. coli Rosetta2; details: inhibition of KLHDC2^SBD binding to a di-Gly degron peptide; read-out: TR-FRET IC50
# T2 sequence (Q9Y2U9 15-361): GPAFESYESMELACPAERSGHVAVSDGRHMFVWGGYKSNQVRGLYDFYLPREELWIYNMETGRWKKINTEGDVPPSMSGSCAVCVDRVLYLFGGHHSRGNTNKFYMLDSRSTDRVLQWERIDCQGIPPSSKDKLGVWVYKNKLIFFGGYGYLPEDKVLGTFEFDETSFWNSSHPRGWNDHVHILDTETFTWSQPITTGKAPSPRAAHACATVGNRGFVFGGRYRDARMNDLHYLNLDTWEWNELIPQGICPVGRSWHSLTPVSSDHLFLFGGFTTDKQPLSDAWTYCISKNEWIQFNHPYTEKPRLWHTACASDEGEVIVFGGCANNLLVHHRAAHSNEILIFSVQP
# Protocol: TR-FRET assays were carried out in black 384-well microtiter plates at a final volume of 20 μL per well. An assay cocktail was prepared as a mixture of 50 nM Biotin-KLHDC2 SBD, 20 nM AlexaFluor488-RIC8B peptide, 2.5 nM Tb-Streptavidin (ThermoFisher) in assay buffer (25 mM HEPES, 100 mM NaCl, 0.1% Triton X-100, 0.5 mM DTT, pH 7.5). The assay cocktail was incubated for thirty-minutes at room temperature and 20 μl distributed to assay plates. Molecules were distributed to the plates at the indicated concentration and the assay mixture was incubated for 1 h at room temperature prior to measuring the TR-FRET signal with a PHERAstar FS plate reader (BMG Labtech) equipped with modules for excitation at 337 nm and emissions at 490 and 520 nm. The integration start was set to 100 µs and the integration time to 200 µs. The number of flashes was fixed at 100. The ratio of 520/490 was used as TR-FRET signal in calculations. Assay endpoints were normalized to 100% (buffer only) and used for curve fitting in Prism.
# KLHDC2^SBD [2] = target: T2, KLHDC2^SBD; assay: Thermal shift assay (Sypro Orange) probing stabilization of KLHDC2^SBD; assay type: binding; design: KLHDC2^SBD (15-361) and its Avi-tagged counterpart were expressed in E. coli Rosetta2 cells; 6XHis-MBP (N, cleaved yes); made in house; host or cells: E. coli Rosetta2; details: KLHDC2^SBD; ligand concentration not given
# Protocol: In an attempt to identify non-peptide ligands that target KLHDC2’s substrate binding domain (SBD), we developed a thermal shift assay probing for stabilization of KLHDC2^SBD upon ligand addition. […] We utilized the thermal shift assay to screen ~ 9,000 molecules from a diverse collection of lead-like molecules (Figs. 1b, S1a, Supplementary Table 1).
# Experimental compounds (200 nl each) were dispensed into a 384-well PCR plate using the Labcyte ECHO 655 T. The assay solution, comprising 0.5 μM KLHDC2, 25 mM HEPES, 200 mM NaCl, and 5% Sypro Orange at pH 7.5, was added to achieve a final volume of 20 μl. Negative control wells contained only DMSO, while positive control wells contained a di-Gly substrate peptide derived from SELK. Fluorescence measurements of Sypro Orange in each sample were taken using a Quantstudio 5 or Quantstudio 6, with temperatures ranging from 23 to 75 °C at a rate of 0.05 °C/s. Data analysis involved calculating thermal stability using the Boltzmann and first derivative minima equations in Thermo Scientific Protein Thermal Shift software v1.4. The resulting data were uploaded to CDD Vault for further analysis.
# The 8892-compound lead-like one library was screened for its ability to stabilize KLHDC2 using a sypro orange-based thermal stability single-point assay.
# Supplementary Ta b l e 1. Small molecule screening data
# Category Parameter Description
# Assay Ty p e o f assay Thermal Stability Screen
# Primary measurement RFU of Sypro Orange
# Key reagents Sypro Orange
# Assay protocol Experimental compounds (200nl each) were dispensed into […]
# a 384-well PCR plate using the Labcyte ECHO 655T. The […]
# assay solution, comprising 0.5µM KLHDC2, 25mM HEPES,
# 200mM NaCl, and 5% Sypro Orange at pH 7.5, was added […]
# to achieve a final volume of 20μl. Negative control wells […]
# contained only DMSO, while positive control wells […]
# contained peptide sub2. Fluorescence measurements of
# Sypro Orange in each sample were taken using a
# Quantstudio 5 or Quantstudio 6, with temperatures ranging […]
# from 23 to 75°C at a rate of 0.05°C/second. Data analysis […]
# involved calculating thermal stability using the Boltzmann […]
# and first derivative minima equations in Thermo Scientific
# Protein Thermal Shift software v1.4. The resulting data […]
# were uploaded to CDD Vault for further analysis.
# Library Library size 10041
# Library composition The library was curated from compounds cherry picked […]
# from St. Jude’s collection, representative of 80% of the […]
# entire collection based on scaffold diversity (2D Molecular […]
# fingerprinting based clustering) and structural properties: […]
# lipophilicity (cLogP<3), size (MW 200-300 Da), and no […]
# structural alerts (PAINS).
# Source The compound collection was curated from multiple […]
# vendors and stored on-site.
# Screen Format The assay was completed in 26 384 well plates
# Concentration(s) tested Compounds were tested at 100µM, and then a 16-point […]
# serial dilution was performed on select compounds.
# Plate controls DMSO as negative control and peptide sub2 as positive […]
# Reagent/ compound dispensing system Multidrop Combi and Labcyte ECHO 655T […]
# Detection instrument and software Quant Studio 5 and Quant Studio 6 and Thermo Scientific […]
# Protein Thermal Shift software v1.4
# Correction factors No correction factors were applied.
# [3] = U2OS, 24 h, read-out: BRD3 level relative to DMSO (100%), U2OS KO/Rescue, 1µM, 24 h, Fig 6d
# [4] = U2OS, 24 h, read-out: BRD2 level relative to DMSO (100%), U2OS KO/Rescue, 1µM, 24 h, Fig 6d
# [5] = U2OS, 24 h, read-out: BRD3 level relative to DMSO (100%), U2OS KO/Rescue, 1µM, 24 h, Fig 6c
# [6] = U2OS, 24 h, read-out: BRD2 level relative to DMSO (100%), U2OS KO/Rescue, 1µM, 24 h, Fig 6c
# Chain of BRD2 (P25440 whole entry): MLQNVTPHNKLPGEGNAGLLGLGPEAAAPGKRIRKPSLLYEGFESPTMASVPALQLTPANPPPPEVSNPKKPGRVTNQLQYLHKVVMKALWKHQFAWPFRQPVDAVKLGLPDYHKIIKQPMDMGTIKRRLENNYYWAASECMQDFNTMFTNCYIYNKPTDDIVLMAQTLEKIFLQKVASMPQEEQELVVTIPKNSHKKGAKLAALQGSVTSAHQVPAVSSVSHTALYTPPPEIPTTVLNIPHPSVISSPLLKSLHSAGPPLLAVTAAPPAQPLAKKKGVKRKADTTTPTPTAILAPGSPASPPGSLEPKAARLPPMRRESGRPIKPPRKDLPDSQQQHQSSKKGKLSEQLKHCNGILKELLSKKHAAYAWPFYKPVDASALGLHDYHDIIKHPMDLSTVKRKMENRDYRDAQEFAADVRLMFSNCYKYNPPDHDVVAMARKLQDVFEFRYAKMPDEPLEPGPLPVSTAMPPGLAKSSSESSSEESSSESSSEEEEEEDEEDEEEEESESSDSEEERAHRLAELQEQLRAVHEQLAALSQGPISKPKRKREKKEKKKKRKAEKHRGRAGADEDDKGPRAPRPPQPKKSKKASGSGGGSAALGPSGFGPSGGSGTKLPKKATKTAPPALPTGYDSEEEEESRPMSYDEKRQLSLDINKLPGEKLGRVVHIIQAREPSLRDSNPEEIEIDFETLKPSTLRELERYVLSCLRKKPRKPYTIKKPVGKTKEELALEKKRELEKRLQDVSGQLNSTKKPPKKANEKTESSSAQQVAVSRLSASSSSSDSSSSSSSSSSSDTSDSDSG
# Chain of BRD3 (Q15059 whole entry): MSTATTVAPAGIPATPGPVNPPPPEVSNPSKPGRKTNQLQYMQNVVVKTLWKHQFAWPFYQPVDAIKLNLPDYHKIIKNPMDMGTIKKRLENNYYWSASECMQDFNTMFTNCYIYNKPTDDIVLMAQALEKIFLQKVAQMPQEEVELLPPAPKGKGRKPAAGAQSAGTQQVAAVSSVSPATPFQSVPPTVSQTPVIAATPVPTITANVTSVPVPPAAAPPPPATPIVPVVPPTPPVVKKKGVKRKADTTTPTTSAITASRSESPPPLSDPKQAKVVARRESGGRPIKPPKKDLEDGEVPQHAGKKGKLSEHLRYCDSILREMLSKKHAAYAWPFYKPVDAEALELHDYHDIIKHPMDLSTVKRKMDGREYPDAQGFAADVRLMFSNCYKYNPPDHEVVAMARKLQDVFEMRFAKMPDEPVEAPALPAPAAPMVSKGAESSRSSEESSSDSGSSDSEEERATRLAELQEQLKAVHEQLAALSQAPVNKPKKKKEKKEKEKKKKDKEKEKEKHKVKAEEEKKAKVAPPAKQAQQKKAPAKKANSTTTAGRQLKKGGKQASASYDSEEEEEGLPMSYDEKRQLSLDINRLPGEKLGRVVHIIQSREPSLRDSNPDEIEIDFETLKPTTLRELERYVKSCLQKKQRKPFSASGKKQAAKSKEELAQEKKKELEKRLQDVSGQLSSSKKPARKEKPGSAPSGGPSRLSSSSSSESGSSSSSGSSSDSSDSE
compound,measurement,setting,value
"NS(=O)(=O)OC[C@@H]1C[C@@H](n2ccc3c(N[C@H]4CCc5ccccc54)ncnc32)C[C@@H]1O [MLN4924, reference compound]","BRD4 level, Western blot quantification (DMSO = 100)",BRD4; Fig 6d,136.422 and 116.069
same,BRD4 level relative to DMSO (100%),BRD4; Fig 6d,130 +/- 14%
same,remaining activity at 1 µM,BRD3; [3],120 ± 23%
same,"KLHDC2 level, Western blot quantification (DMSO = 100)",KLHDC2; Fig 6d,3372.82 and 2800.12
same,KLHDC2 level relative to DMSO (100%),"KLHDC2; 1µM, 24 h, Fig 6d",3090 +/- 404%
same,remaining activity at 1 µM,BRD2; [4],170 ± 21%
O=C(O)CNC(=O)Cc1csc(-c2cccc3ccncc23)n1 [SJ46412],IC50,KLHDC2^SBD [1],20.3 ± 0.8 µM
same,Thermal shift ΔTm,KLHDC2^SBD [2],1.8 ± 0.08 °C
COc1ccc2cc(-c3nc(CC(=O)NCC(=O)O)cs3)ccc2c1 [SJ46413],IC50,KLHDC2^SBD [1],10.3 ± 0.2 µM
same,Thermal shift ΔTm,KLHDC2^SBD [2],3.9 ± 0.07 °C
O=C(O)CNC(=O)Cc1csc(-c2cccc3cccnc23)n1 [SJ46414],IC50,KLHDC2^SBD [1],7.1 ± 0.2 µM
same,Thermal shift ΔTm,KLHDC2^SBD [2],2.7 ± 0.3 °C
O=C(O)CNC(=O)Cc1csc(-c2cccc3ccccc23)n1 [SJ46415],IC50,KLHDC2^SBD [1],9.8 ± 0.1 µM
same,Thermal shift ΔTm,KLHDC2^SBD [2],3.7 ± 0.05 °C
O=C(O)CNC(=O)Cc1csc(-c2ccc3ccccc3c2F)n1 [SJ46416],IC50,KLHDC2^SBD [1],1.8 ± 0.1 µM
same,Thermal shift ΔTm,KLHDC2^SBD [2],6.0 ± 0.1 °C
COc1ccc2ccc(-c3nc(CC(=O)NCC(=O)O)cs3)cc2c1 [SJ46417],IC50,KLHDC2^SBD [1],1.7 ± 0.06 µM
same,Thermal shift ΔTm,KLHDC2^SBD [2],4.3 ± 0.1 °C
Cc1sc2c(c1C)C(c1ccc(Cl)cc1)=N[C@@H](CC(=O)N1CCN(CCOc3cccc4ccc(-c5nc(CC(=O)NCC(=O)OCc6ccccc6)cs5)cc34)CC1)c1nnc(C)n1-2 [SJ48087],BRD4 level relative to DMSO (100%),BRD4; Fig 6c,101 +/- 11%
same,remaining activity at 1 µM,BRD3; [5],89 ± 7.3%
same,KLHDC2 level relative to DMSO (100%),"KLHDC2; 1µM, 24 h, Fig 6c",221 +/- 27%
same,remaining activity at 1 µM,BRD2; [6],90 ± 4%
Cc1sc2c(c1C)C(c1ccc(Cl)cc1)=N[C@@H](CC(=O)N1CCN(CCOc3cccc4ccc(-c5nc(CC(=O)NCC(=O)OC6CCCC6)cs5)cc34)CC1)c1nnc(C)n1-2 [SJ48088],"BRD4 level, Western blot quantification (DMSO = 100)",BRD4; Fig 6c,85.9664 and 71.4338
same,"BRD4 level, Western blot quantification (DMSO = 100)",BRD4; Fig 6d,72.2613 and 75.636
same,BRD4 level relative to DMSO (100%),BRD4; Fig 6c,79 +/- 9.6%
same,BRD4 level relative to DMSO (100%),BRD4; Fig 6d,74 +/- 2.5%
same,remaining activity at 1 µM,"BRD3; U2OS, 24 h, read-out: BRD3 level relative to DMSO (100%), U2OS KO/Rescue, 1µM + co-dosing 1µM MLN4924, 24 h, Fig 6d",120 ± 6.2%
same,remaining activity at 1 µM,BRD3; [5],46 ± 1.5%
same,remaining activity at 1 µM,BRD3; [3],24 ± 4.6%
same,remaining activity at 1 µM,"BRD3; read-out: BRD3 level, Western blot quantification (DMSO = 100), Fig 6c, 1 uM",47.1%
same,remaining activity at 1 µM,"BRD3; read-out: BRD3 level, Western blot quantification (DMSO = 100), Fig 6d, 1 uM",20.7%
same,"KLHDC2 level, Western blot quantification (DMSO = 100)",KLHDC2; Fig 6c,472.526 and 740.895
same,"KLHDC2 level, Western blot quantification (DMSO = 100)",KLHDC2; Fig 6d,1961.3 and 1506.23
same,KLHDC2 level relative to DMSO (100%),"KLHDC2; 1µM + co-dosing 1µM MLN4924, 24 h, Fig 6d",4837 +/- 513%
same,KLHDC2 level relative to DMSO (100%),"KLHDC2; 1µM, 24 h, Fig 6c",606 +/- 190%
same,KLHDC2 level relative to DMSO (100%),"KLHDC2; 1µM, 24 h, Fig 6d",1733 +/- 321%
same,remaining activity at 1 µM,"BRD2; U2OS, 24 h, read-out: BRD2 level relative to DMSO (100%), U2OS KO/Rescue, 1µM + co-dosing 1µM MLN4924, 24 h, Fig 6d",270 ± 67%
same,remaining activity at 1 µM,BRD2; [6],83 ± 9.7%
same,remaining activity at 1 µM,BRD2; [4],78 ± 7.4%
same,remaining activity at 1 µM,"BRD2; read-out: BRD2 level, Western blot quantification (DMSO = 100), Fig 6c, 1 uM",75.6%
same,remaining activity at 1 µM,"BRD2; read-out: BRD2 level, Western blot quantification (DMSO = 100), Fig 6d, 1 uM",73.2%
O=C(O)CNC(=O)Cc1csc(-c2ccc3c(c2)NCCO3)n1 [SJ49356],IC50,KLHDC2^SBD [1],8.2 ± 0.3 µM
same,Thermal shift ΔTm,KLHDC2^SBD [2],1.3 ± 0.5 °C
